Assay [1] addresses D(2) dopamine receptor (Homo sapiens, UniProt P14416). The experiment in a line: Binding affinity for human Dopamine receptor D2.
The target of assay [2] is D(3) dopamine receptor (Rattus norvegicus, UniProt P19020). The experiment in a line: Binding affinity for rat Dopamine receptor D3.
Assay [3] concerns the target T1, Alpha-1B adrenergic receptor (Homo sapiens, UniProt P35368).
T1 sequence (P35368 whole entry): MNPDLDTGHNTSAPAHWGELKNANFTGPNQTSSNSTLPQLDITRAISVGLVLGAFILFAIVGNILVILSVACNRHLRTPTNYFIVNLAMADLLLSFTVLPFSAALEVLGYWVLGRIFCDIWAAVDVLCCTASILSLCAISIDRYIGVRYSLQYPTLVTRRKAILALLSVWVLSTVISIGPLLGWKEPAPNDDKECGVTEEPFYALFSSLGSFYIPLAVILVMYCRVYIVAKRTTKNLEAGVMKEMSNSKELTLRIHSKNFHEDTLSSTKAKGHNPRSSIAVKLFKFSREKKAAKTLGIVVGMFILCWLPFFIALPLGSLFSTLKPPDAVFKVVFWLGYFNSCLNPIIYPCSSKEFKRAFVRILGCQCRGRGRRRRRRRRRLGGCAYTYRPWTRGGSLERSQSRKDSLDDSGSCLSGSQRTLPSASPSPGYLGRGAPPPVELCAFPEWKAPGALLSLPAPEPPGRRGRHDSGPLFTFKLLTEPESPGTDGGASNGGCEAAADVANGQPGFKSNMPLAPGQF
The experiment in a line: Binding affinity for human Alpha-1B adrenergic receptor.

In assay [4] the target is T2, Alpha-1A adrenergic receptor (Homo sapiens, UniProt P35348).
T2 sequence (P35348 whole entry): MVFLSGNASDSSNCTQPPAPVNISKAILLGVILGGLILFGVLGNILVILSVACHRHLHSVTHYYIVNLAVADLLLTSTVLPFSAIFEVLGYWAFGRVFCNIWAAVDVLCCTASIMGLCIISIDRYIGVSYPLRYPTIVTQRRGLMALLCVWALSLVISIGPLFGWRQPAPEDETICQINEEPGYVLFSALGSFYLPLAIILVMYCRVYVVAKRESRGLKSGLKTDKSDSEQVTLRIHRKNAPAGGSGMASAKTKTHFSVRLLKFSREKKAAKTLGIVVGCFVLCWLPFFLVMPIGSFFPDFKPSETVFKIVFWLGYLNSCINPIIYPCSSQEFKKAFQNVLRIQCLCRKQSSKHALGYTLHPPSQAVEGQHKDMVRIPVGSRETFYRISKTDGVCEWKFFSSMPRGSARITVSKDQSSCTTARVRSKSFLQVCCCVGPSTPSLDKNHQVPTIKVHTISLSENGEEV
Nature of the assay: Binding affinity for human Alpha-1A adrenergic receptor.

Assay [5] concerns the target T3, 5-hydroxytryptamine receptor 1A (Homo sapiens, UniProt P08908).
T3 sequence (P08908 whole entry): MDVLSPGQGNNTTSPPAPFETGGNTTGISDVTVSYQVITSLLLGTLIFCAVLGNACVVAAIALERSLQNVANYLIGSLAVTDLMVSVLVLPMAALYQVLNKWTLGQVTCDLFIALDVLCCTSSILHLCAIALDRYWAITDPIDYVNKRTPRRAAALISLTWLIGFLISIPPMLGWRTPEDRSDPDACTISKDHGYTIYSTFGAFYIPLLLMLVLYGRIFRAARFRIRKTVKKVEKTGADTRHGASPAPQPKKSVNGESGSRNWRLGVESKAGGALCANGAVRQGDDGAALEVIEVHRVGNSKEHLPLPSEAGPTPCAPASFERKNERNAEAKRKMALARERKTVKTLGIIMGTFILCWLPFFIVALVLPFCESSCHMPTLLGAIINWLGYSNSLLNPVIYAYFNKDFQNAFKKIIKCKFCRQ
Description: Binding affinity for human 5-hydroxytryptamine 1A receptor

Assay [6] has as its target T4, Alpha-1D adrenergic receptor (Homo sapiens, UniProt P25100).
T4 sequence (P25100 whole entry): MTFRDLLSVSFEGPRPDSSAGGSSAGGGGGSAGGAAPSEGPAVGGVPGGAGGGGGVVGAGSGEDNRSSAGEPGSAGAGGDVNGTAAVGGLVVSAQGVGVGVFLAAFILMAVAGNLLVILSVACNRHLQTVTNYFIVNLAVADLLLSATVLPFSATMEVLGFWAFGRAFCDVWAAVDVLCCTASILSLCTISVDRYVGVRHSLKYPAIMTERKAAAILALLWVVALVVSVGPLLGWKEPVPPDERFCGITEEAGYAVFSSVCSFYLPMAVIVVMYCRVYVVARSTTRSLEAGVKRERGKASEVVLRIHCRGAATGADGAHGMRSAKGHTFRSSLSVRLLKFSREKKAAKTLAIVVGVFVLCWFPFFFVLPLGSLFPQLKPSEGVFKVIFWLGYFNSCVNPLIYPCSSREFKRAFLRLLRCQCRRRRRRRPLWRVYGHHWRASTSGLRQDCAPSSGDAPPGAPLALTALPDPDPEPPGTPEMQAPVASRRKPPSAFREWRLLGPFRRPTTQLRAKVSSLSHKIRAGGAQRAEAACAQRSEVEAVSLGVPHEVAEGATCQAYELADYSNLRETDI
Nature of the assay: Binding affinity for human Alpha-1D adrenergic receptor.

Sequence of D(3) dopamine receptor (P19020 whole entry): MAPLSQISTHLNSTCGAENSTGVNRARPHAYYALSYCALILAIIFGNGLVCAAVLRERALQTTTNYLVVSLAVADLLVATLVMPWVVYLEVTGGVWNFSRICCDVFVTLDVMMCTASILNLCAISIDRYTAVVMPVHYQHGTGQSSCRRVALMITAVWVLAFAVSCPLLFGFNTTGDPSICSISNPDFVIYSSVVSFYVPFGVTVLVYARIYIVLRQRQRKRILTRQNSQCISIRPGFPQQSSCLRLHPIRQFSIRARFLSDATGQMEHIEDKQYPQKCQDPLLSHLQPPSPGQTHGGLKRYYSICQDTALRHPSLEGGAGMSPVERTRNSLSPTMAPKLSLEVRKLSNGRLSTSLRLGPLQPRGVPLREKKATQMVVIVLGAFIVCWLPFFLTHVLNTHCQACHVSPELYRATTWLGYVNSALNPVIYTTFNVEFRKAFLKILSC
Sequence of D(2) dopamine receptor (P14416 whole entry): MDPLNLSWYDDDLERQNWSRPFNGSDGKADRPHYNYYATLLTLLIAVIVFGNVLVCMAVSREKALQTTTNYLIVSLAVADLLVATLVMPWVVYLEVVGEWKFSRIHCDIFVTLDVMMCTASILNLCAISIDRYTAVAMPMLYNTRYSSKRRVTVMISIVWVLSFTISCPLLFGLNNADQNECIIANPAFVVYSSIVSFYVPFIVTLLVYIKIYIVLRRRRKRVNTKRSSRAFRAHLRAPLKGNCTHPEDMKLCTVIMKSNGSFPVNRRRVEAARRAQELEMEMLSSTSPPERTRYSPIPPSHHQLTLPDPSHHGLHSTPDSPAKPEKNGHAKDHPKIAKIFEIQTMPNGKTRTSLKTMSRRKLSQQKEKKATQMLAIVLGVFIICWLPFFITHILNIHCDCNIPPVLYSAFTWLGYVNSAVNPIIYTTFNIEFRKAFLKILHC

One may read the Ki as a measure of affinity in units of concentration, obtained from inhibition or displacement. A higher Ki goes with lower affinity. `O=C1CC2(CCCC2)CC(=O)N1CCN1CCN(c2ccc(F)c(F)c2)CC1`: the Ki in assay [1] was found to be 2200 nM; in assay [2], 160 nM; in assay [3] it was 1400 nM; in assay [4] it was 4100 nM; in assay [5], 55 nM.
On to `O=C1CC2(CCCC2)CC(=O)N1CCN1CCN(c2cc(F)c(F)cc2F)CC1`, for which the Ki in assay [1] turned out to be 700 nM; in assay [2], 23 nM; in assay [3], 380 nM; in assay [6], 1.9 nM; in assay [4], 4400 nM; in assay [5], 360 nM.
Compound `C[C@@H](CN1CCN(c2cc(F)c(F)cc2F)CC1)N1C(=O)CC2(CCCC2)CC1=O` registered an inhibition constant Ki in assay [6] of 124 nM. That is a sub-micromolar value.
As for `O=C1CC2(CCCC2)CC(=O)N1CCN1CCN(c2ccccc2F)CC1`, the Ki in assay [1] worked out at 140 nM; in assay [2] it was 5.2 nM; in assay [3], 67 nM.
For the compound `O=C1CC2(CCCC2)CC(=O)N1CCN1CCN(c2ccc(F)cc2F)CC1`, the Ki worked out at 1100 nM in assay [3], 5.6 nM in assay [6], 3800 nM in assay [4] and 24 nM in assay [5].
With `O=C1CC2(CCCC2)CC(=O)N1CCN1CCN(c2cc(F)ccc2F)CC1`, the Ki in assay [1] was determined as 120 nM; in assay [2] it was 8.1 nM; in assay [3], 54 nM; in assay [6], 0.95 nM.
As for `O=C1CC2(CCCC2)CC(=O)N1CCN1CCN(c2ccc(F)cc2)CC1`, the Ki in assay [1] worked out at 2200 nM; in assay [2] it was 91 nM; in assay [3], 255 nM; in assay [6] it was 14 nM; in assay [4], 620 nM; in assay [5] it was 54 nM.
Take `C[C@H](CN1CCN(c2cc(F)c(F)cc2F)CC1)N1C(=O)CC2(CCCC2)CC1=O`: the inhibition constant (Ki) in assay [1] is 580 nM; in assay [2] it was 120 nM; in assay [4], 14000 nM.
Consider `COc1ccccc1N1CCN(CCN2C(=O)CC3(CCCC3)CC2=O)CC1` [BMY-7378], for which the inhibition constant Ki in assay [1] was found to be 14 nM; in assay [2] it was 3.1 nM; in assay [5], 0.46 nM.
